Assays:
[1] = tested on: human platelet-rich plasma; test: Arachidonic acid-induced platelet aggregation in human platelet-rich plasma; format: cell-based; settings: arachidonic acid 200 μM
Procedure: (§1) Human platelet suspension (PS) was prepared according to the method described previously. Briefly, blood sample, freshly obtained from healthy volunteers who had taken no medications during the preceding 2 weeks, was treated with acid citrate/dextrose (ACD) in a volume ratio of 9:1. After centrifugation at 120 g, 25° C. for 9 min, platelet-rich plasma was transferred into another plastic tube and incubated with heparin (6.4 U/ml) as well as prostaglandin E1 (1 μM). Platelets were spun down by centrifugation at 500 g, 25° C. for 8 min and subsequently washed two times with Tyrode solution (NaH2PO4 0.4 mM; NaCl 136.9 mM; KCl […]; NaHCO3 11.9 mM; CaCl2 2 mM; MgCl2 2.1 mM; glucose 11.1 mM; BSA 3.5 mg/ml; pH 7.35-7.4). The washed platelets were finally suspended in Tyrode's solution and the platelet count was adjusted to 3.75×10^8 platelets/ml. For platelet-rich plasma (PRP) preparation, whole blood was anticoagulated with 1/10 vol of sodium citrate (3.8%, w/v) and centrifuged at 150 g, 25° C. for 9 min.
(§2) Platelet aggregation was measured turbidimetrically with a Lumi-aggregometer (Payton Scientific) at 37° C. under stirring condition (900 rpm). […] The extent of platelet aggregation was determined by recording the increase of light transmission relative to that of control (maximal aggregation, as 100%) for 6 min after the addition of inducer. […]

[2] = tested on: human platelet-rich plasma; test: U46619-induced platelet aggregation in human platelet-rich plasma; format: cell-based; settings: U46619 1 μM
Procedure: as §1, §2

[3] = tested on: human platelet suspension; test: ADP-induced platelet aggregation in human platelet suspension; format: cell-based
Procedure: as §1
Platelet aggregation was measured turbidimetrically with a Lumi-aggregometer (Payton Scientific) at 37° C. under stirring condition (900 rpm). Platelet suspensions were prewarmed to 37° C. for 2 min in a silicone-treated glass cuvette. Nstpbp5185 was added 3 min before the addition of platelet-aggregation inducers. The extent of platelet aggregation was determined by recording the increase of light transmission relative to that of control (maximal aggregation, as 100%) for 6 min after the addition of inducer. The final volume and platelet count for measuring platelet aggregation were 500 μl and 3×10^8/ml, respectively.

Thromboxane synthase = biological target: T1, Thromboxane synthase (Homo sapiens, UniProt P24557); test: Thromboxane synthase activity (Table III comparison); format: biochemical
T1 construct: MDS
T1 sequence (P24557 1-533): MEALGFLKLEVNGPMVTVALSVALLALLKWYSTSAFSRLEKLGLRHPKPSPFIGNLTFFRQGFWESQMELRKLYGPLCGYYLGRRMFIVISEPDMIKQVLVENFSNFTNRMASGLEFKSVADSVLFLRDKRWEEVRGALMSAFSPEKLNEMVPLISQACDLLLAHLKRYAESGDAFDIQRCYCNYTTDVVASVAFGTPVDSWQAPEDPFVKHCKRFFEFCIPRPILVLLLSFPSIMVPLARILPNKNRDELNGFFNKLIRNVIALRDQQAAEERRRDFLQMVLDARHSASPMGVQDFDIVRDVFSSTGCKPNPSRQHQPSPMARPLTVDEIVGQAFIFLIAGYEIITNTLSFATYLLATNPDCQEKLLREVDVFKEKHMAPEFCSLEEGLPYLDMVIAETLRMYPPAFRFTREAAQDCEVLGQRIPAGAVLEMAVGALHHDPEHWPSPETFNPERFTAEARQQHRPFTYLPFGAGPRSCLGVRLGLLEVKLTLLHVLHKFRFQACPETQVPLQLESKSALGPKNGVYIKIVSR
Procedure: These kinases or enzymatic assays were performed by MDS according to the standardized methods

mice = test: OVA-induced asthmatic mice (sensitization and airway challenge); format: in vivo
Procedure: Mice were divided into groups receiving the following treatments: (1) sham sensitization plus challenge with phosphate buffered saline (PBS) (n=5), (2) sensitization plus challenge with OVA (Sigma A5503; Sigma, St. Louis, Mo.) (n=10), and (3 and 4) sensitization with OVA (i.p.) plus challenge with and nstpbp5185 (10 or 20 mg/kg) (n=6-7). […] Mice were challenged through the airway with 100 μg OVA in 40 μL PBS buffer via intranasal administration (i.n.) days 36, 37 and 38 and AHR induced by methacholine (MCh) were measured at day 39. Animals were sacrificed 24 h after the AHR measurement. The mice were placed in the main chamber of a whole body plethysmograph (Buxco Electronics, Inc., Sharon, Conn., USA) and challenged with aerosolized 0.9% normal saline accompanied by increasing doses of methacholine (6.25-50 mg/ml). Each nebulization lasted for 3 min, and after each nebulization, recordings were taken and averaged for the 3 min. The Penh values were determined, and the data were expressed as Penh values.
Serum were collected and stored at −70° C. after centrifugation (3000 rpm, 10 min). The amount of OVA-specific IgE was determined by ELISA. Briefly, 96-well plates were coated with OVA at 10 μg/well. After the plates were blocked, 100 μl/well of diluted sera was added, and the plates were incubated at room temperature for 2 h or at 4° C. overnight. After incubation, the plates were washed five times with PBS with Tween 20 buffer, the secondary antibody (biotinylated rat anti-mouse IgE; AbD Serotec, Kidlington, UK) was added and plates were incubated for 1 h at room temperature. […] The avidin-horseradish peroxidase was removed by washing with PBS with Tween 20 buffer, and the bound enzyme substrate was detected by adding tetramethylbenzidine reagent (KPL, Gaithersburg, Md., USA). […] Optical density was measured at 450 nm (550 nm was used as a reference filter) in a microplate autoreader (Anthos Reader 2010; Anthos Labtec Instruments GmbH, Salzburg, Austria).

mice carotid artery = test: FeCl3-induced thrombus formation in mice carotid artery; format: in vivo; settings: intravenous administration
Procedure: FIG. 14 The antithrombotic activity of nstpbp5185 in FeCl3-induced thrombi formation in mice carotid artery. (A) Mice were intravenously administered with Heparin (10 or 100 U kg^−1), Aspirin (40 or 80 μg g^−1), or different doses of nstpbp5185 (B). After 5 min, FeCl3 injury was induced by a filter paper saturated with ferric chloride solution (10%). After removal of the paper, carotid blood flow (ml min^−1) was monitored continuously until thromboembolism formation or for 60 min. (C) Mice were orally administered with different doses of Aspirin and nstpbp5185 (D). Both drugs were suspended in 1% CMC. Blood flow monitoring were recorded used analyzed Labchart software (AD instruments). Data are presented as the mean±SEM (n≧3). **P<0.01 and ***P<0.001 as compared with the vehicle control (DMSO).
Mice were intravenously or orally administered with different doses of nstpbp5185.

| SMILES | IC50 [1] [µM] | IC50 [2] [µM] | effect on platelet aggregation caused by ADP ([3]; data not shown) | % inhibition ADF ([3]; human platelet suspension, preliminary, compound concentration not given) [%] | Thromboxane synthase (Thromboxane synthase; Table III arrows) | IC50 (Thromboxane synthase; read-out: Thromboxane synthase inhibition IC50) [µM] | cellular infiltration of the airways (mice; 10 and 20 mg/kg/day) | OVA-specific IgE, IgG2a and IgG1 levels in serum (mice; 10 or 20 mg/kg) | asthma symptoms after OVA challenge (mice; Group 3 and Group 4 (10 or 20 mg/kg)) | ED50 FeCl3-induced thrombus formation (mice carotid artery) |
| --- | --- | --- | --- | --- | --- | --- | --- | --- | --- | --- |
| Cc1ccc(-c2nc3ccc(F)cc3n2Cc2cccc(F)c2)o1 [Ctkf6f2, 6-fluoro-1-(3-fluorobenzyl)-2-(5-methyl-2-furyl)benzimidazole] | 8.87 ± 2.52 | 3.27 ± 1.01 |  |  |  |  |  |  |  |  |
| Cc1ccc(-c2nc3ccccc3n2Cc2ccccc2)o1 [Example 6, 1-Benzyl-2-(5-methyl-2-furyl)benzimidazole] |  |  | little effects | 10.9 | ↓ | 10 | reduced | significant reduction | alleviated symptoms | ≈ 2.6 μg g^−1 |

From US20170152245A1 (National Taiwan University, priority 2015, published 2017)
